Results from ChEMBL document CHEMBL1149673, “A novel approach to cyclin-dependent kinase 5/p25 inhibitors: A potential treatment for Alzheimer's disease” (Bioorg Med Chem, 2007).

Biological target: Cyclin-dependent kinase 5/CDK5 activator 1 (Homo sapiens, UniProt Q00535)
Sequence (Q00535 whole entry): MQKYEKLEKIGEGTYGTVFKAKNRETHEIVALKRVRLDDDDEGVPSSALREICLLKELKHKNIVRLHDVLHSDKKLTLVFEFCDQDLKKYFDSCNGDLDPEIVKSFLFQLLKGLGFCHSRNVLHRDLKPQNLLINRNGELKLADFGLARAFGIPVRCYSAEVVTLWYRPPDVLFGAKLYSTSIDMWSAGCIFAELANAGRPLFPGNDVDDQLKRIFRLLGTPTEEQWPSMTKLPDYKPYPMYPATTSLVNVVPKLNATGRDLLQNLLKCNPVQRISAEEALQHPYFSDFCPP
Sequence (Q15078 whole entry, further chain): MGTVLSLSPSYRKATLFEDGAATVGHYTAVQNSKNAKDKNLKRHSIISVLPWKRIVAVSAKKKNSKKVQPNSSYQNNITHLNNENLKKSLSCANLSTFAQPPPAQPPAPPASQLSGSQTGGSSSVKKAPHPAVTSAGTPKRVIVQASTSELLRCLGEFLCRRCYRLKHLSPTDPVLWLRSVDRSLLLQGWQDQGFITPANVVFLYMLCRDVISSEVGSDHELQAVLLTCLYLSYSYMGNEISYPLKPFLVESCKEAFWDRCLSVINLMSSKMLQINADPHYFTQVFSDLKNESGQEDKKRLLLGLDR
Test: Inhibitory activity against Cdk5/p25
Assay type: protein-complex assay
Conditions: not given; call rule not given here
`CC(=O)Nc1cc(-c2ccccc2)c(-c2nnc3n2NC(=O)CS3)s1` showed an IC50 of 418 nM.
Molecule `CC1=Nn2c(nnc2-c2sc(NC(=O)CCl)cc2C)SC1` has an IC50 of 462 nM.
For `O=C(CCl)Nc1cc(-c2ccccc2)c(-c2nnc3n2N=C(c2cc(F)c(Cl)cc2Cl)/C(=C/c2ccccc2)S3)s1`, the IC50 was 2490 nM.
`CC(=O)Nc1cc(C)c(-c2nnc3n2N=C(c2cc(F)c(Cl)cc2Cl)/C(=C/c2ccccc2)S3)s1` gave an IC50 of 2370 nM.
For `Cc1cc(NC(=O)CCl)sc1-c1nnc2n1N=C(c1cc(F)c(Cl)cc1Cl)/C(=C/c1cccc([N+](=O)[O-])c1)S2`, the IC50 was 3070 nM.
Work on `CC(=O)Nc1cc(-c2ccccc2)c(-c2nnc3n2N=C(c2cc(F)c(Cl)cc2Cl)/C(=C/c2ccc(Cl)cc2)S3)s1` yielded an IC50 of 2480 nM.
Molecule `CC(=O)Nc1cc(C)c(-c2nnc3sc(=S)[nH]n23)s1` has an IC50 of 3260 nM.
Molecule `CC(=O)Nc1cc(-c2ccccc2)c(-c2nnc3n2N=C(C)CS3)s1` has an IC50 of 448 nM.
`O=C(CCl)Nc1cc(-c2ccccc2)c(-c2nnc3n2N=C(c2cc(F)c(Cl)cc2Cl)/C(=C/c2ccccc2Cl)S3)s1` gave an IC50 of 2460 nM.
In the case of `CC1=Nn2c(nnc2-c2sc(NC(=O)CCl)cc2-c2ccccc2)SC1`, the IC50 is reported as 368 nM.
`O=C(CCl)Nc1cc(-c2ccccc2)c(-c2nnc3n2NC(=O)CS3)s1` showed an IC50 of 634 nM.
`O=C(CCl)Nc1cc(-c2ccccc2)c(-c2nnc3n2N=C(c2cc(F)c(Cl)cc2Cl)/C(=C/c2ccc(Cl)cc2)S3)s1` showed an IC50 of 2450 nM.
For `CC(=O)Nc1cc(C)c(-c2nnc3n2N=C(c2cc(F)c(Cl)cc2Cl)/C(=C/c2ccccc2Cl)S3)s1`, the IC50 was 3280 nM.
Work on `CC(=O)Nc1cc(-c2ccccc2)c(-c2nnc3n2N=C(c2cc(F)c(Cl)cc2Cl)/C(=C/c2ccccc2)S3)s1` yielded an IC50 of 1450 nM.
In the case of `CC(=O)Nc1cc(C)c(-c2nnc3n2NC(=O)CS3)s1`, the IC50 is reported as 630 nM.
Molecule `Cc1cc(NC(=O)CCl)sc1-c1nnc2sc(=S)[nH]n12` has an IC50 of 7480 nM.
In the case of `O=C(CCl)Nc1cc(-c2ccccc2)c(-c2nnc3sc(S)nn23)s1`, the IC50 is reported as 5900 nM.
Molecule `Cc1cc(NC(=O)CCl)sc1-c1nnc2n1N=C(c1cc(F)c(Cl)cc1Cl)/C(=C/c1ccccc1Cl)S2` has an IC50 of 3340 nM.
`CC(=O)Nc1cc(C)c(-c2nnc3n2N=C(c2cc(F)c(Cl)cc2Cl)/C(=C/c2cccc([N+](=O)[O-])c2)S3)s1` showed an IC50 of 3050 nM.
`CC(=O)Nc1cc(-c2ccccc2)c(-c2nnc3n2N=C(c2cc(F)c(Cl)cc2Cl)/C(=C/c2ccccc2Cl)S3)s1` showed an IC50 of 2460 nM.
`CC(=O)Nc1cc(C)c(-c2nnc3n2N=C(C)CS3)s1` gave an IC50 of 642 nM.
`CC(=O)Nc1cc(C)c(-c2nnc3n2N=C(c2cc(F)c(Cl)cc2Cl)/C(=C/c2ccc(Cl)cc2)S3)s1` gave an IC50 of 3390 nM.
`CC(=O)Nc1cc(-c2ccccc2)c(-c2nnc3sc(=S)[nH]n23)s1` gave an IC50 of 2060 nM.
With `Cc1cc(NC(=O)CCl)sc1-c1nnc2n1N=C(c1cc(F)c(Cl)cc1Cl)/C(=C/c1ccccc1)S2` the IC50 was 3420 nM.

Test system: not listed separately
Test: Toxicity in Vero-C1008 cells at 6.25 to 50 ug/ml
Assay type: cell-based
Conditions: African green monkey
With `CC(=O)Nc1cc(-c2ccccc2)c(-c2nnc3n2NC(=O)CS3)s1` the Activity was “Not Active”.
With `CC1=Nn2c(nnc2-c2sc(NC(=O)CCl)cc2C)SC1` the Activity was “Not Active”.
For `O=C(CCl)Nc1cc(-c2ccccc2)c(-c2nnc3n2N=C(c2cc(F)c(Cl)cc2Cl)/C(=C/c2ccccc2)S3)s1`, the Activity was “Not Active”.
With `CC(=O)Nc1cc(C)c(-c2nnc3n2N=C(c2cc(F)c(Cl)cc2Cl)/C(=C/c2ccccc2)S3)s1` the Activity was “Not Active”.
In the case of `Cc1cc(NC(=O)CCl)sc1-c1nnc2n1N=C(c1cc(F)c(Cl)cc1Cl)/C(=C/c1cccc([N+](=O)[O-])c1)S2`, the Activity is reported as “Not Active”.
For `CC(=O)Nc1cc(-c2ccccc2)c(-c2nnc3n2N=C(c2cc(F)c(Cl)cc2Cl)/C(=C/c2ccc(Cl)cc2)S3)s1`, the Activity was “Not Active”.
With `CC(=O)Nc1cc(C)c(-c2nnc3sc(=S)[nH]n23)s1` the Activity was “Not Active”.
For `CC(=O)Nc1cc(-c2ccccc2)c(-c2nnc3n2N=C(C)CS3)s1`, the Activity was “Not Active”.
For `O=C(CCl)Nc1cc(-c2ccccc2)c(-c2nnc3n2N=C(c2cc(F)c(Cl)cc2Cl)/C(=C/c2ccccc2Cl)S3)s1`, the Activity was “Not Active”.
For `CC1=Nn2c(nnc2-c2sc(NC(=O)CCl)cc2-c2ccccc2)SC1`, the Activity was “Not Active”.
For `O=C(CCl)Nc1cc(-c2ccccc2)c(-c2nnc3n2NC(=O)CS3)s1`, the Activity was “Not Active”.
For `O=C(CCl)Nc1cc(-c2ccccc2)c(-c2nnc3n2N=C(c2cc(F)c(Cl)cc2Cl)/C(=C/c2ccc(Cl)cc2)S3)s1`, the Activity was “Not Active”.
With `CC(=O)Nc1cc(C)c(-c2nnc3n2N=C(c2cc(F)c(Cl)cc2Cl)/C(=C/c2ccccc2Cl)S3)s1` the Activity was “Not Active”.
With `CC(=O)Nc1cc(-c2ccccc2)c(-c2nnc3n2N=C(c2cc(F)c(Cl)cc2Cl)/C(=C/c2ccccc2)S3)s1` the Activity was “Not Active”.
With `CC(=O)Nc1cc(C)c(-c2nnc3n2NC(=O)CS3)s1` the Activity was “Not Active”.
For `Cc1cc(NC(=O)CCl)sc1-c1nnc2sc(=S)[nH]n12`, the Activity was “Not Active”.
In the case of `O=C(CCl)Nc1cc(-c2ccccc2)c(-c2nnc3sc(S)nn23)s1`, the Activity is reported as “Not Active”.
In the case of `Cc1cc(NC(=O)CCl)sc1-c1nnc2n1N=C(c1cc(F)c(Cl)cc1Cl)/C(=C/c1ccccc1Cl)S2`, the Activity is reported as “Not Active”.
With `CC(=O)Nc1cc(C)c(-c2nnc3n2N=C(c2cc(F)c(Cl)cc2Cl)/C(=C/c2cccc([N+](=O)[O-])c2)S3)s1` the Activity was “Not Active”.
For `CC(=O)Nc1cc(-c2ccccc2)c(-c2nnc3n2N=C(c2cc(F)c(Cl)cc2Cl)/C(=C/c2ccccc2Cl)S3)s1`, the Activity was “Not Active”.
In the case of `CC(=O)Nc1cc(C)c(-c2nnc3n2N=C(C)CS3)s1`, the Activity is reported as “Not Active”.
With `CC(=O)Nc1cc(C)c(-c2nnc3n2N=C(c2cc(F)c(Cl)cc2Cl)/C(=C/c2ccc(Cl)cc2)S3)s1` the Activity was “Not Active”.
With `CC(=O)Nc1cc(-c2ccccc2)c(-c2nnc3sc(=S)[nH]n23)s1` the Activity was “Not Active”.
In the case of `Cc1cc(NC(=O)CCl)sc1-c1nnc2n1N=C(c1cc(F)c(Cl)cc1Cl)/C(=C/c1ccccc1)S2`, the Activity is reported as “Not Active”.
